Experiments:
[1] = test system: forearm circulation; test: Sodium nitrite infusion into the brachial artery, forearm blood flow by venous-occlusion plethysmography; settings: 8 μmol/min into brachial artery for 5 minutes
Description: The protocol was approved by the Institutional Review Board of the National Heart, Lung and Blood Institute, and informed consent was obtained from all volunteer subjects. […] An additional 10 subjects returned three-six months later for a second series of experiments with low dose nitrite infusion. […] No volunteer subject was allowed to take any medication (oral contraceptive agents allowed), vitamin supplements, herbal preparations, nutriceuticals or other “alternative therapies” for at least one month prior to study and were not be allowed to take aspirin for one week prior to study.
Brachial artery and antecubital vein catheters were placed into the arm, with the intraarterial catheter connected to a pressure transducer for blood pressure measurements and an infusion pump delivering normal saline at 1 mL/min. After 20 minutes of rest, baseline arterial and venous blood samples were obtained and forearm blood flow measurements were made by strain gauge venous-occlusion plethysmography, as previously reported (Panza et al., Circulation, 87, 1468-74, 1993). A series of 7 blood flow measurements were averaged for each blood flow determination. A series of measurements termed Parts I and II were performed in randomized order to minimize a time effect on the forearm blood flow response during nitrite infusion.
Part I: Following 20 minutes of 0.9% NaCl (saline) solution infusion at 1 mL/min into the brachial artery, arterial and venous blood samples were obtained for the assays described below and forearm blood flow measured. Exercise was performed by repetitive hand-grip at one-third of the predetermined maximum grip strength using a hand-grip dynamometer (Technical Products Co.) (Gladwin et al., Proc Natl Acad Sci USA, 97, 9943-8, 2000; Gladwin et al., Proc Natl Acad Sci USA, 97, 11482-11487, 2000; Cannon et al., J Clin Invest, 108, 279-87, 2001). Each contraction lasted for 10 seconds followed by relaxation for 5 seconds. Following 5 minutes of exercise, forearm blood flow measurements were obtained during relaxation phases of exercise, and arterial and venous samples collected. Following a 20-minute rest period with continued infusion of saline into the brachial artery, repeated baseline blood samples and forearm blood flow measurements were obtained. L-NMMA was then infused at a rate of 1 mL/min (8 μmol/min) into the brachial artery. Following 5 minutes of L-NMMA infusion, forearm blood flow was measured, and arterial and venous blood samples obtained. Forearm exercise was then initiated in that arm during continued L-NMMA infusion. Forearm blood flow was measured and blood samples obtained after 5 minutes of exercise during continued L-NMMA infusion (FIG. 1).
Part II: After a 30 minute rest period with continued infusion of saline, baseline measurements were obtained, the saline infusion was then stopped, and infusion of nitrite (NaNO2 36 μmol/ml in 0.9% saline) at 1 ml/min was started. […] For the final 9 subjects studied, 0.01-0.03 mM sodium bicarbonate was added to the normal saline, so as to titrate pH to 7.0-7.4. The nitrite solution was light protected and nitrite levels and free NO gas in solution measured by reductive chemiluminescence after all experiments (Gladwin et al., J Biol Chem, 21, 21, 2002).

[2] = test system: hypoxic-induced pulmonary hypertension; test: Comparison of inhaled nitrite and NO gas during hypoxic-induced pulmonary vasoconstriction: efficacy and duration; format: in vivo, newborn lambs; settings: hypoxia
Description: NO gas was introduced into the inspiratory limb of the breathing circuit. The inspired concentration of NO was continuously measured by chemiluminescence (CLD 700 AL, Eco Physics Inc, Ann Arbor, Mich.) in the inspiratory limb of the ventilator loop.
efficacy and duration of effect. This protocol was designed to compare the efficacy of nitrite with the clinical standard, 20 ppm inhaled NO gas. […] A second purpose was to determine the duration of effect of a short nitrite nebulization versus NO gas inhalation on hemodynamic and physiological measurements during prolonged hypoxic-induced pulmonary vasoconstriction. After baseline measurements were performed, the lambs were made hypoxic as described above for 35 minutes. Ten minutes after initiation of hypoxia, a 20-minute period of NO gas inhalation was initiated (20 ppm), with continuation of hypoxia for 5 minutes after cessation of NO gas delivery. Lambs were then allowed to recover for one hour. Again, after baseline measurements were made, a second 90-minute period of hypoxia was initiated.

[3] = test system: hepatic ischemia-reperfusion injury; test: Hepatic ischemia-reperfusion (I/R) injury; format: in vivo, mice
Method: Carboxy-PTIO [2-(4-Carboxyphenyl)-4,4,5,5-tetramethylimidazoline-1-oxyl-3-oxide potassium salt], a direct intravascular NO scavenger, was utilized to inhibit NO dependent effects following hepatic I/R injury. Carboxy-PTIO (Alexis Biochemicals) was dissolved in phosphate buffered saline and administered intravenously at a dose of 1 mg/Kg in a volume of 50 μL at 30 minutes prior to hepatic ischemia Zinc(II) Deuteroporphyrin IX-2,4-bisethyleneglycol (ZnDBG) (Alexis Biochemicals), a heme oxygenase-1 inhibitor was injected i.p. at a dose of 10 mg/Kg in a volume of 50 μL at 30 minutes prior to the induction of hepatic ischemia.
All of the mice utilized in the present studies were C57BL6/J at 8-10 weeks of age obtained from the Jackson Laboratories (Bar Harbor, Me.). In additional experiments of hepatic I/R injury we utilized mice completely deficient (−/−) in endothelial nitric oxide synthase (eNOS). eNOS−/− mice were originally generously donated from Dr. Paul Huang (Mass. General Hospital) and generated in our breeding colony at LSU-Health Sciences Center. eNOS−/− mice were utilized at 8-10 weeks of age.
The hepatic I/R protocol is depicted in FIG. 6A and has been described previously (Hines et al., Biochem Biophys Res Commun 284:972-976, 2001; Hines et al., Am J Physiol Gastrointest Liver Physiol 284:G536-545, 2001). Mice were anesthetized with the combination of ketamine (100 mg/kg) and zylazine (8 mg/kg) and a midline laparotomy was performed to expose the liver. Mice were then injected with heparin (100 μg/kg, i.p.) to prevent blood clotting. The left lateral and median lobes of the liver were rendered ischemic by completely clamping the hepatic artery and the portal vein using microaneurysm clamps. This experimental model results in a segmental (70%) hepatic ischemia. This method of partial ischemia prevents mesenteric venous congestion by allowing portal decompression throughout the right and caudate lobes of the liver. The liver was then repositioned in the peritoneal cavity in its original location for 45 minutes. The liver was kept moist using gauze soaked in 0.9% normal saline. In addition, body temperature was maintained at 37° C. using a heat lamp and monitoring body temperature with a rectal temperature probe. Sham surgeries were identical except that hepatic blood flow was not reduced with a microaneurysm clamp. The duration of hepatic ischemia was 45 minutes in all experiments, following which the microaneurysm clamps were removed. The duration of hepatic reperfusion was 5 hours in the studies of serum liver transaminase levels (i.e., AST or ALT) and 24 hours for the studies of liver histopathology (such as hepatocellular infarction).
Serum samples were analyzed for aspartate aminotransferase (AST) and alanine aminotransferase (ALT) using a spectrophotometric method (Sigma Chemical Co., St. Louis, Mo.) (Harada et al., Proc Natl Acad Sci USA 100:739-744, 2003). These enzymes are liver specific and are released from the liver during injury (Hines et al., Biochem Biophys Res Commun 284:972-976, 2001; Hines et al., Am J Physiol Gastrointest Liver Physiol 284:G536-545, 2001). […]

[4] = test system: U46619-induced normoxic pulmonary hypertension; format: in vivo; settings: 2 μg/kg/min i.v. for 30 minutes; before 24±1
Method: This is a simple, inexpensive, and widely available clinical nebulizer system, though other systems could be used.
Six additional lambs were studied in order to evaluate the effects of nitrite nebulization on normoxic pulmonary hypertension. Stable normoxic pulmonary hypertension was induced by an infusion of a stable endoperoxide analog of thromboxane (U46619-9,11-dideoxy-11α-epoxymethano-prostaglandin F2α, Cayman Chemicals, Ann Arbor, Mich.). The drug was dissolved in saline and was administered at a rate of 2 μg/kg/min into the femoral venous catheter for 30 minutes. Nitrite was nebulized for inhalation during the last 20 minutes of the infusion (FIG. 11).

`CNC(=N)NCCC[C@H](N)C(=O)O` [L-NMMA, L-NG-monomethyl-arginine] was tested, and the “reduction of forearm blood flow” value [1] was “approximately 30%”.

For `[N]=O` [NO gas, nitric oxide], the “loss of the vasodilating effect after termination of delivery” value ([2]; 20 ppm) was “in a matter of seconds” and the “reduction (correction) of hypoxic-induced pulmonary hypertension” value ([2]; NO gas 20 ppm or nitrite aerosol for 20 minutes) was “about 80%”.

For `CC1(C)N([O])C(c2ccc(C(=O)[O-])cc2)=[N+]([O-])C1(C)C.[K+]` [PTIO, 2-(4-Carboxyphenyl)-4,4,5,5-tetramethylimidazoline-1-oxyl-3-oxide potassium salt], the “effect on nitrite protection (serum AST)” value ([3]; nitrite 24 μM + PTIO, full factorial design) was “completely inhibited protective effects of nitrite”.

In the case of `CCCCCC(O)/C=C/C1C2CC(CO2)C1C/C=C\CCCC(=O)O` (stereo not drawn) [U46619, 9,11-dideoxy-11α-epoxymethano-prostaglandin F2α], the “pulmonary artery pressure during infusion” value [4] is reported as 51±4 mmHg.

With `O=[N+]([O-])[O-].[Na+]` [sodium nitrate] the “serum elevations of liver transaminases AST and ALT” value ([3]; intraperitoneal during hepatic ischemia, 45 min ischemia, 5 h reperfusion, nitrite 1.2-480 nmoles, nitrate 48 nmoles) was “did not exert any protective effects”.

Reference: patent US9700578B2, “Use of nitrite salts for the treatment of cardiovascular conditions” (The United States of America as represented by the …, priority 2003, dated 2017)
